The test system of experiment [1] is SCCHN cell lines. The experiment is described as follows: Cell motility and migration. It is filed as cell-based, human. An excerpt:
c-Met is known to have a significant role in cell scattering and possibly metastatic spread (Ren et al., Clin Cancer Res, 11, (17), 6190-7 (2005) and Endo, et al., Hum Pathol, 37, (8), 1111-6 (2006)). Here, the effects of c-Met suppression on cell motility and migration as a surrogate marker for metastatic spread was investigated. […] The degree of downstream modulation varied by cell line.

The subject of experiment [2] is MM-RU melanoma cells. The experiment is described as follows: Differentiation of melanoma cells (morphology). To be noted: 72 hrs with 5 μM SU11274. It is filed as cell-based, human. An excerpt:
(§1) Thus SU11274 could induce a differentiated phenotype in a wide variety of melanoma cells melanized, amelanotic, less and more differentiated melanoma cells.

Experiment [3] deals with MM-MC melanoma cells. The experiment in a line: Differentiation of melanoma cells (morphology). It is filed as cell-based, human. To be noted: 72 hrs with 5 μM SU11274.
Description: as §1

The test system of experiment [4] is c-Met dependent signaling in MM-MC melanoma cells. The experiment is described as follows: Phosphorylation of c-Met and signaling molecules via HGF, immunoblotting. Conditions: MM-MC (c-Met mutation). Type of experiment: cell-based, human. As to the method: (§2) MU and MC cells that expressed c-Met were deprived of growth factors by incubation in serum free medium containing 0.5% BSA for 24 hours with or without SU11274 (5 μM). After treatment with or without SU11274 in serum free medium, cells were stimulated with or without HGF (EMD Biosciences, San Diego, Calif.) at 40 ng/ml for 7.5 minutes at 37° C. After harvesting, the cells were subjected to the standard procedures of immunoblotting. Antibodies specifically against phosphorylated c-Met, and other proteins are as described above.
(§3) The ability of SU11274 to inhibit activation of c-Met was examined by immunoblotting. Treatment with HGF increased the autophosphorylation of c-MET at the activation loop site phospho-epitope [pY1230/1234/1235]. […] HGF binding to c-Met activated its' tyrosine kinase, AKT (S-473) and S-6 kinase (T-421/S424).
On the technique in general: A western blot detects proteins with antibodies after separation by electrophoresis.

Experiment [5] concerns c-Met dependent signaling in MU melanoma cells. The experiment is described as above. Type of experiment: cell-based, human. As for the experimental part:
as §2, §3

Experiment [6] has as its system MITF, tyrosinase, gp-100, MART-1. The experiment is described as follows: Immunoblotting of melanoma differentiation proteins, densiometric analysis. Type of experiment: cell-based, human. Conditions: 12 hrs after treatment; 10 μM SU11274. An excerpt: SU11274: [(3Z)-N-(3-chlorophenyl)-3-({3,5-dimethyl-4-[(4-methylpiperazin-1-yl)carbonyl]-1H-pyrrol-2-yl}methylene)-N-methyl-2-oxo-2,3-dihydro-1H-indole-5-sulfonamide] (obtained from Pfizer Inc, San Diego, Calif.) was suspended in DMSO and kept in small aliquots at −20 degrees. Phosphospecific antibody to pY1230/1234/1235 (autophosphorylation site) was obtained from Biosource International, Camarillo, Calif. Phosphospecific antibodies for pS473 on AKT and pT421/pS424 on p70 S6-Kinase were obtained from Cell Signaling, Beverly, Mass. Total c-Met and BCLXL antibodies were obtained from Santa Cruz Biotechnology, Santa Cruz, Calif. and β-actin from Sigma Aldrich (St. Louis, Mo.). For detecting melanoma differentiation proteins the following antibodies were used anti-tyrosinase monoclonal antibody (clone T311, Nova-castra, New Castle upon Tyne, UK), anti-gp-100 monoclonal antibody (MO 634, Dako corporation, Carpinteria, Calif.) and anti-MART-1/Melan-A monoclonal antibody (clone M2-7C10, Signet, Dedham, Mass.).
Cells were lysed in lysis buffer containing 20 mM Tris, pH 8.0; 150 mM NaCl, 10% glycerol, 1% NP40, 0.42% NaF, 1 mM PMSF, 1 mM Na3V04, 10 μl/ml Protease inhibitor cocktail (Sigma Aldrich, St. Louis, Mo.) as described previously (Maulik et al., Clin Cancer Res, 8: 620-7 (2002)). Cell lysates were separated by 7.5% or 10% SDS-PAGE electrophoresis under reducing conditions. Proteins were transferred to an immobilization membrane (Bio-Rad Laboratories, Hercules, Calif.) and immunoblotted using the enhanced chemiluminescence technique (PerkinElmer Life and analytical Sciences, Torrence, Calif.).
(§4) siRNA against c-Met was obtained from Dharmacon (Lafayette, Colo.). Briefly four pooled SiRNA duplexes were transiently transfected into MU melanoma cells by the Dharmacon protocol utilizing Oligofectamine obtained from Invitrogen (Carlsbad, Calif.). Mock transfection was done in parallel using SignalSilence control SiRNA (Cell Signaling Technology) as negative control. For studies on the effect of Si RNA on differentiation proteins MU melanoma cells were transfected with Si RNA as described above and cell lysates were prepared after 12 hrs and immunoblotting performed as described above.
It was hypothesized that SU11274 could not only induce a differentiated phenotype, but also MITF, tyrosinase and other melanocyte associated differentiation markers. […] The increase in the level of various differentiation proteins was determined by densiometric anaylsis after treatment with 10 μM SU11274.
The effect of si RNA against c-Met was also studied on the proliferation and differentiation of MU melanoma cells. […] The increase in the level of various differentiation proteins was determined by densiometric anaylsis after treatment with c-Met si RNA.

The test system of experiment [7] is MM-AN melanoma cells (minimal levels of c-MET). The experiment in a line: Cell growth analysis (cell counting). It is filed as cell-based, human. As to the method:
(§5) For measuring the effect of SU11274 on growth of melanoma cells, MM-AN, MU, PM-WK, MM-RU, MM-MC and RPM-EP cells were plated at 6×10^4 cells in 60 mm dishes in MEM with 10% serum. After 24 hrs different concentrations of SU11274 were added and after 96 hrs cells were trypsinized and counted in a cell counter (Beckman Coulter). Each data point was repeated in triplicate.

The subject of experiment [8] is SCCHN cell lines. The experiment is described as follows: Viability/growth by MTT and/or Cyquant. It is filed as cell-based, human. Conditions: several cell lines. An excerpt:
Specific inhibition of c-Met by small molecule inhibitors can also be determined. […] Both SU11274 (1st generation) and Compound X (3rd generation) were used to test for their respective inhibitory effects on SCCHN cell lines.

Experiment [9] deals with MU melanoma cells. The experiment is described as follows: Proliferation / growth of melanoma cells. Type of experiment: cell-based. Conditions: Homo sapiens. As for the experimental part:
as §5, §4
The effect of si RNA against c-Met was also studied on the proliferation and differentiation of MU melanoma cells. […] SU11274 at 5 μM and 10 μM inhibited the growth of melanoma cells by 72% and 88% respectively. […] The increase in the level of various differentiation proteins was determined by densiometric anaylsis after treatment with c-Met si RNA.

A word on the IC50: it is the concentration that gives 50% inhibition. Low readings indicate greater potency in that assay, high ones weaker potency in that assay. What is called inhibition is the relative decrease from the control value, in per cent. A higher inhibition goes with a strong effect.

With `Cc1[nH]c(/C=C2\C(=O)Nc3ccc(S(=O)(=O)N(C)c4cccc(Cl)c4)cc32)c(C)c1C(=O)N1CCN(C)CC1` [SU11274, (3Z)-N-(3-chlorophenyl)-3-({3,5-dimethyl-4-[(4-methylpiperazin-1-yl)carbonyl]-1H-pyrrol-2-yl}methylene)-N-methyl-2-oxo-2,3-dihydro-1H-indole-5-sulfonamide], the cell motility entry in experiment [1] is listed as “marked decrease”. Also, in [2], the “change in morphology / differentiated phenotype” value was “became bipolar, tripolar or multipolar”. The “change in morphology / differentiated phenotype” value in experiment [3] was “became bipolar, tripolar or multipolar”. In experiment [4], the “phosphorylation of c-Met and AKT” value is recorded as “inhibited”. Moreover, the BCLXL level entry in [5] is on record as “downregulated”. Also, the “HGF induced phosphorylation of c-Met, AKT and S6 kinase” value in experiment [5] (5 μM) was “completely inhibited”. Further, the “autophosphorylation of c-MET at activation loop site [pY1230/1234/1235]” value in experiment [5] (HGF stimulated) is “completely abolished”. Also, the “phosphorylation of c-Met and AKT” value in experiment [5] (MU (no c-Met mutation)) is given as “inhibited”. In [6], the “increase in levels of MART-1” value is reported as 2 fold, the “increase in levels of MITF” value was 3 fold, the “increase in levels of gp-100” value worked out at 6 fold and the “increase in levels of tyrosinase” value was determined as 12 fold. Besides, the “IC50 of MM-AN relative to cell lines with abundant c-Met” value in experiment [7] was 2 fold. The compound also showed a half-maximal inhibitory concentration (IC50) in experiment [7] (Homo sapiens, MM-AN, 96 hrs) of 5 µM. For the same compound, in experiment [8], the viability/growth entry is “markedly decreased”. This compound also returned an inhibition at 5 µM in experiment [9] (5 μM) of 72%. The same compound gave an inhibition at 10 µM in experiment [9] (10 μM) of 88%.

For the origin of these results see patent US20100062441A1, “C-MET MUTATIONS AND USES THEREOF” (priority 2007, published 2010).
